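Assay format: 96-well plates, 48-hour exposure. The concentration for 50% growth inhibition is given as GI50.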 Active and inactive are the calls of the source. No stated cut-off is given here; in the data, active = GI50 up to about 1.1 µM and inactive = higher.
What was measured:
Experiment in all cases: growth of human tumour cells (NCI), 48 h
SNB-75 = tested on: SNB-75
SF-295 = tested on: SF-295
K562 = tested on: K562
A549 = tested on: A549
786-0 = tested on: 786-0
RPMI-8226 = tested on: RPMI-8226
ACHN = tested on: ACHN
A498 = tested on: A498
SK-OV-3 = tested on: SK-OV-3
NCI-H460 = tested on: NCI-H460
NCI-H522 = tested on: NCI-H522
CCRF-CEM = tested on: CCRF-CEM
TK-10 = tested on: TK-10
RXF 393 = tested on: RXF 393
HOP-92 = tested on: HOP-92
CAKI-1 = tested on: CAKI-1
HCC 2998 = tested on: HCC 2998

SMILES	GI50 (SNB-75)	GI50 (SF-295)	GI50 (K562)	GI50 (A549)	GI50 (786-0)	GI50 (RPMI-8226)	GI50 (ACHN)	GI50 (A498)	GI50 (SK-OV-3)	GI50 (NCI-H460)	GI50 (NCI-H522)	GI50 (CCRF-CEM)	GI50 (TK-10)	GI50 (RXF 393)	GI50 (HOP-92)	GI50 (CAKI-1)	GI50 (HCC 2998)
CC(CN(C)C)/C(=N\Nc1ccccc1)c1ccccc1 (stereo not given)	13 µM (inactive)	0.0436 µM (active)	0.112 µM (active)	0.44 µM (active)	0.499 µM (active)	0.366 µM (active)	0.242 µM (active)	29.2 µM (inactive)	15.6 µM (inactive)	0.171 µM (active)	0.889 µM (active)	0.211 µM (active)	1.02 µM (active)	11.4 µM (inactive)	–	–	–
Cc1cccc(NC(=O)CC#N)c1Cl	> 100 µM (inactive)	> 100 µM (inactive)	> 100 µM (inactive)	> 100 µM (inactive)	> 100 µM (inactive)	> 100 µM (inactive)	> 100 µM (inactive)	–	> 100 µM (inactive)	–	> 100 µM (inactive)	> 100 µM (inactive)	> 100 µM (inactive)	–	> 100 µM (inactive)	> 100 µM (inactive)	–
Cc1ccc([N+]2=NC(c3ccc([N+](=O)[O-])cc3)=NN(c3ccccc3)C2)cc1	–	53.3 µM (inactive)	20.3 µM (inactive)	> 100 µM (inactive)	> 100 µM (inactive)	57.4 µM (inactive)	> 100 µM (inactive)	95.9 µM (inactive)	–	41 µM (inactive)	16.4 µM (inactive)	24.3 µM (inactive)	> 100 µM (inactive)	51.9 µM (inactive)	–	–	> 100 µM (inactive)
O=C1C=CC(=O)C2C1Cc1ccccc1C2c1ccccc1 (stereo not given)	42.7 µM (inactive)	> 100 µM (inactive)	31.6 µM (inactive)	30.1 µM (inactive)	38.5 µM (inactive)	22.3 µM (inactive)	50.4 µM (inactive)	22.4 µM (inactive)	> 100 µM (inactive)	29.9 µM (inactive)	20.9 µM (inactive)	20.3 µM (inactive)	74.1 µM (inactive)	–	32 µM (inactive)	59 µM (inactive)	21.7 µM (inactive)
CC1=C(C(=O)Nc2ccccc2C)C(c2ccc([N+](=O)[O-])cc2)C(C(=O)Nc2ccccc2C)=C(C)N1	22.8 µM (inactive)	58.2 µM (inactive)	40.1 µM (inactive)	22.5 µM (inactive)	53.3 µM (inactive)	28.6 µM (inactive)	30.2 µM (inactive)	14 µM (inactive)	> 100 µM (inactive)	44.9 µM (inactive)	32 µM (inactive)	27.2 µM (inactive)	46.1 µM (inactive)	16.4 µM (inactive)	–	36.6 µM (inactive)	47.3 µM (inactive)
CC(=O)Nc1ccc2c(c1)C(=O)c1ccccc1-2	> 100 µM (inactive)	> 100 µM (inactive)	> 100 µM (inactive)	> 100 µM (inactive)	> 100 µM (inactive)	> 100 µM (inactive)	> 100 µM (inactive)	–	> 100 µM (inactive)	> 100 µM (inactive)	> 100 µM (inactive)	> 100 µM (inactive)	> 100 µM (inactive)	> 100 µM (inactive)	–	–	> 100 µM (inactive)
CCOC1(COP(=O)(OCc2ccccc2)OCc2ccccc2)COC(COP(=O)(OCc2ccccc2)OCc2ccccc2)(OCC)CO1 (stereo not given)	–	> 100 µM (inactive)	> 100 µM (inactive)	9.02 µM (inactive)	> 100 µM (inactive)	74.6 µM (inactive)	7.82 µM (inactive)	–	> 100 µM (inactive)	95.7 µM (inactive)	> 100 µM (inactive)	> 100 µM (inactive)	> 100 µM (inactive)	4.33 µM (inactive)	2.99 µM (inactive)	> 100 µM (inactive)	> 100 µM (inactive)
CCOC(=O)C1=C(C)N(c2ccccc2)C2=C(C(=O)N(c3ccccc3)C2c2ccccc2)C1c1ccccc1 (stereo not given)	> 100 µM (inactive)	> 100 µM (inactive)	> 100 µM (inactive)	> 100 µM (inactive)	> 100 µM (inactive)	> 100 µM (inactive)	> 100 µM (inactive)	–	> 100 µM (inactive)	> 100 µM (inactive)	> 100 µM (inactive)	> 100 µM (inactive)	> 100 µM (inactive)	> 100 µM (inactive)	> 100 µM (inactive)	> 100 µM (inactive)	> 100 µM (inactive)
CC(=O)O[C@]1(C)OC(=O)[C@@H](C)N1[N+](=O)[O-]	57.1 µM (inactive)	> 100 µM (inactive)	> 100 µM (inactive)	> 100 µM (inactive)	> 100 µM (inactive)	> 100 µM (inactive)	60 µM (inactive)	> 100 µM (inactive)	> 100 µM (inactive)	39.2 µM (inactive)	> 100 µM (inactive)	72.8 µM (inactive)	> 100 µM (inactive)	> 100 µM (inactive)	–	–	> 100 µM (inactive)
CC(=O)CC(=O)CCCC(=O)Nc1ccc(Cl)cc1Cl	> 100 µM (inactive)	> 100 µM (inactive)	> 100 µM (inactive)	> 100 µM (inactive)	> 100 µM (inactive)	> 100 µM (inactive)	> 100 µM (inactive)	–	> 100 µM (inactive)	> 100 µM (inactive)	> 100 µM (inactive)	–	> 100 µM (inactive)	–	> 100 µM (inactive)	> 100 µM (inactive)	> 100 µM (inactive)
Cc1cc(C)nc(NS(=O)(=O)c2ccc(NC(=O)c3cccc4c(N)c5ccccc5nc34)cc2)n1	> 100 µM (inactive)	> 100 µM (inactive)	63.8 µM (inactive)	> 100 µM (inactive)	> 100 µM (inactive)	34.2 µM (inactive)	> 100 µM (inactive)	> 100 µM (inactive)	> 100 µM (inactive)	> 100 µM (inactive)	> 100 µM (inactive)	26.2 µM (inactive)	> 100 µM (inactive)	> 100 µM (inactive)	–	> 100 µM (inactive)	67.1 µM (inactive)
Cc1ccc(S(=O)(=O)CC(=O)CC(=O)C(=O)Nc2cccc(C(F)(F)F)c2)cc1	47.6 µM (inactive)	> 100 µM (inactive)	> 100 µM (inactive)	> 100 µM (inactive)	> 100 µM (inactive)	> 100 µM (inactive)	> 100 µM (inactive)	–	> 100 µM (inactive)	–	> 100 µM (inactive)	> 100 µM (inactive)	> 100 µM (inactive)	–	> 100 µM (inactive)	> 100 µM (inactive)	–
Cc1c(/C=N/NC(=O)c2ccc(Cl)cc2)c(=O)n(-c2ccccc2)n1C	> 100 µM (inactive)	> 100 µM (inactive)	> 100 µM (inactive)	> 100 µM (inactive)	> 100 µM (inactive)	> 100 µM (inactive)	> 100 µM (inactive)	–	> 100 µM (inactive)	> 100 µM (inactive)	> 100 µM (inactive)	> 100 µM (inactive)	> 100 µM (inactive)	> 100 µM (inactive)	> 100 µM (inactive)	–	> 100 µM (inactive)
